# Data from patent US11089783B2, “2-(het)aryl-substituted fused heterocycle derivatives as pesticides” (Bayer Aktiengesellschaft, priority 2017, dated 2021).
# Tests used:
# Type in all cases: in vivo
# Myzus persicae [1] = experiment: Myzus persicae spray test (MYZUPE S), bell pepper plants; details: 144 h, 6 dat, read-out: % efficacy
# Summary of the method: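 Infested bell pepper plants (Capsicum annuum) sprayed with active ingredient in emulsifier-containing water (1000 ppm emulsifier; ammonium salts/penetrants at 1000 ppm if required). Kill scored in % after the chosen time; 100% = all aphids dead, 0% = none.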
# Myzus persicae [2] = experiment: Myzus persicae drench test (MYZUPE D), savoy cabbage plants; details: soil, 240 h, 0.16 ppm, 10 dat, read-out: % efficacy
# Description: [table] To produce an appropriate active ingredient formulation, 1 part by weight of active ingredient is mixed with the specified amounts of solvent and emulsifier and the concentrate is diluted to the desired concentration with water, it being necessary to take into account the volume of soil into which drenching is effected. It should be ensured that a concentration of 40 ppm of emulsifier in the soil is not exceeded. For production of further test concentrations, the mixture is diluted with water. Savoy cabbage plants (Brassica oleracea) in soil pots, infested by all stages of the green peach aphid (Myzus persicae), are drenched with an active ingredient formulation of the desired concentration. After the desired time, the efficacy in % is determined. 100% means that all the aphids have been killed; 0% means that no aphids have been killed.
# Diabrotica balteata = Diabrotica balteata drench test (DIABBA); details: soil, 192 h, 8 dat, read-out: % efficacy
# Description: [table] To produce an appropriate active ingredient formulation, 1 part by weight of active ingredient is mixed with the specified amounts of solvent and emulsifier and the concentrate is diluted to the desired concentration with water, it being necessary to take into account the volume of soil into which drenching is effected. It should be ensured that a concentration of 40 ppm of emulsifier in the soil is not exceeded. For production of further test concentrations, the mixture is diluted with water. 5 maize kernels in each case are sown into soil-filled pots (Zea mays) and, the next day, drenched with the active ingredient formulation of the desired concentration. After one day, about 25 L2 larvae of the banded cucumber beetle (Diabrotica balteata) were added. After 8 days, the efficacy in % is determined. 100% means that all 5 plants have germinated and grown; 0% means that no plant has emerged.
SMILES,Emax at 0.16 ppm (Myzus persicae [1]; 0.16 ppm),Emax at 0.8 ppm (Myzus persicae [1]; 0.8 ppm),Emax at 0.16 ppm (Myzus persicae [2]),Emax at 20 ppm (Diabrotica balteata)
CCS(=O)(=O)c1ccc(N(C)C(=O)NC)nc1-c1nc2cc(C(F)(F)C(F)(F)F)nnc2n1C [Example I-09],80%,100%,99%,
"CCS(=O)(=O)c1ccc(NC(=O)NC)nc1-c1nc2cc(C(F)(F)C(F)(F)F)nnc2n1C [Example I-08, 1-{5-(ethylsulfonyl)-6-[7-methyl-3-(pentafluoroethyl)-7H-imidazo[4,5-c]pyridazin-6-yl]pyridin-2-yl}-3-methylurea]",,,,100%
